Assay results reported in patent US9447075B2, “Pyridazine derivatives as EAAT2 activators” (The Brigham and Women's Hospital, Inc., priority 2011, dated 2016).

Test system: EAAT2
Assay: EAAT2 protein levels in PA-EAAT2 cells by Western blot
Type: cell-based, human
Settings: for Fold increase for EAAT2, 4 h / Fold increase for EAAT2, 24 h: compound 10 μM, PA-EAAT2 cells, relative to DMSO controls, na = not active; for Fold increase for EAAT2, 4 h: 4 h incubation; for Fold increase for EAAT2, 24 h: 24 h incubation; for SAR comparison of activity on EAAT2 protein levels, in words: relative to parent/comparator analogue, Tables 1-4
Experimental: All of the derivates of 1 were initially evaluated in PA-EAAT2 cells^3 (a primary astrocyte line stably expressing EAAT2 mRNAs) following compound (10 μM) incubation for 4 and 24 h before harvesting and measuring EAAT2 levels by Western blot analysis. The fold increases in EAAT2 protein levels relative to DMSO controls are reported (Tables 1-4).
Characterization and efficacy studies of a compound, Compound 212320 (FIG. 6A) is shown. […] In the absence of serum, PA-EAAT2 cells express low amounts of EAAT2 protein, although the recombinant EAAT2 mRNA are expressed (translational silencing); however, EAAT2 protein levels are increased when an activator is added to the culture (translational activation). This cell line was used for high-throughput screening to identify EAAT2 translational activators. To prioritize candidate compounds, we initially evaluated activation of EAAT2 protein in PA-EAAT2 cells. Promising compounds were further evaluated in primary dissociated neuron and astrocyte mixed cultures and then in mice. FIG. 6 presents the characterization of Compound 212320 in PA-EAAT2 cells. Compound 212320 increased EAAT2 protein levels in a dose—(FIG. 6B) and time—(FIG. 6C) dependent manner. Importantly, the induction occurred in a short amount of time (within 1-2 hr) and was sustained even up to 72 hr (data not show). Additionally, induction occurred at low nanomolar concentrations. […] (FIG. 6D).

SMILES	Fold increase for EAAT2, 4 h [fold]	Fold increase for EAAT2, 24 h [fold]	SAR comparison of activity on EAAT2 protein levels, in words	Activity (EAAT2 increase), in words (compounds 23-27 assessed)
Cc1ccc(CSc2ccc(-c3ccncc3)nn2)cc1 [Compound 7-11]	1.3 ± 0.1	2.4 ± 0.6	reduced activity	
Fc1cc(F)c(CSc2ccc(-c3ccccn3)nn2)c(F)c1 [Compound 7-26]	1.6 ± 1.0	2.4 ± 0.6	did not result in significant improvement	
Fc1cccc(Cl)c1CSc1ccc(-c2cccnc2)nn1 [Compound 7-1]		2.3 ± 0.8	reduced activity	
Cc1ccccc1CS(=O)(=O)c1ccc(-c2ccccn2)nn1 [Compound 9-2]	2.3 ± 0.4	1.1 ± 0.2	detrimental	
Oc1ccc(-c2ccccn2)nn1 [Compound 5-1]	1.5 ± 0.5	1.6 ± 1.0		
Cc1cccc(CSc2ccc(-c3ccccn3)nn2)c1 [Compound 7-27]	2.0 ± 0.2	2.8 ± 0.5	less potent	
Cc1ccc(CSc2ccc(-c3ccccn3)nn2)c(C)c1 [Compound 7-17]	1.9 ± 0.8	6.4 ± 1.0	increased potency	
CC(C)OC(=O)c1ccc(-c2ccccn2)nn1 [Compound 27]				active
